± gives the expanded uncertainty stated by the source.
Conditions: Liquid, Vibrating tube method

CCO [ethanol]
mass density [kg/m3]
Conditions | 100 kPa | 5000 kPa | 10000 kPa | 15000 kPa | 20000 kPa | 25000 kPa | 30000 kPa | 35000 kPa | 40000 kPa | 45000 kPa
283.15 K | 798 ± 0.2 | 802 ± 0.3 | 805.9 ± 0.3 | 809.5 ± 0.3 | 813 ± 0.3 | 816.4 ± 0.3 | 819.7 ± 0.4 | 822.8 ± 0.4 | 825.9 ± 0.4 | 828.8 ± 0.4
293.15 K | 789.5 ± 0.2 | 793.7 ± 0.3 | 797.8 ± 0.3 | 801.6 ± 0.3 | 805.3 ± 0.3 | 808.9 ± 0.3 | 812.3 ± 0.4 | 815.6 ± 0.4 | 818.7 ± 0.4 | 821.8 ± 0.4
303.15 K | 780.9 ± 0.2 | 785.3 ± 0.3 | 789.6 ± 0.3 | 793.7 ± 0.3 | 797.5 ± 0.3 | 801.3 ± 0.3 | 804.8 ± 0.4 | 808.2 ± 0.4 | 811.5 ± 0.4 | 814.7 ± 0.4
313.15 K | 772.1 ± 0.2 | 776.8 ± 0.3 | 781.3 ± 0.3 | 785.6 ± 0.3 | 789.6 ± 0.3 | 793.5 ± 0.4 | 797.2 ± 0.4 | 800.8 ± 0.4 | 804.2 ± 0.4 | 807.6 ± 0.5
323.15 K | 763.3 ± 0.2 | 768.3 ± 0.3 | 773 ± 0.3 | 777.6 ± 0.3 | 781.8 ± 0.3 | 785.9 ± 0.4 | 789.7 ± 0.4 | 793.5 ± 0.4 | 797.1 ± 0.4 | 800.5 ± 0.5
333.15 K | 754 ± 0.2 | 759.3 ± 0.3 | 764.3 ± 0.3 | 769.1 ± 0.3 | 773.6 ± 0.3 | 777.8 ± 0.4 | 781.9 ± 0.4 | 785.8 ± 0.4 | 789.5 ± 0.5 | 793.1 ± 0.5
343.15 K | 744.5 ± 0.2 | 750.1 ± 0.3 | 755.5 ± 0.3 | 760.5 ± 0.3 | 765.3 ± 0.4 | 769.8 ± 0.4 | 774 ± 0.4 | 778.1 ± 0.4 | 782 ± 0.5 | 785.7 ± 0.5
353.15 K | – | 740.6 ± 0.3 | 746.4 ± 0.3 | 751.7 ± 0.3 | 756.7 ± 0.4 | 761.5 ± 0.4 | 766 ± 0.4 | 770.2 ± 0.4 | 774.3 ± 0.5 | 778.2 ± 0.5

Cc1ccccc1 [toluene]
mass density [kg/m3]
Conditions | 100 kPa | 5000 kPa | 10000 kPa | 15000 kPa | 20000 kPa | 25000 kPa | 30000 kPa | 35000 kPa | 40000 kPa | 45000 kPa
283.15 K | 876.1 ± 0.2 | 879.5 ± 0.2 | 882.9 ± 0.3 | 886.1 ± 0.3 | 889.3 ± 0.3 | 892.4 ± 0.3 | 895.3 ± 0.3 | 898.2 ± 0.3 | 901 ± 0.3 | 903.7 ± 0.3
293.15 K | 866.8 ± 0.2 | 870.5 ± 0.2 | 874.1 ± 0.3 | 877.5 ± 0.3 | 880.8 ± 0.3 | 884 ± 0.3 | 887.1 ± 0.3 | 890.1 ± 0.3 | 893 ± 0.3 | 895.9 ± 0.3
303.15 K | 857.5 ± 0.2 | 861.4 ± 0.2 | 865.2 ± 0.3 | 868.8 ± 0.3 | 872.3 ± 0.3 | 875.7 ± 0.3 | 879 ± 0.3 | 882.1 ± 0.3 | 885.2 ± 0.3 | 888.1 ± 0.3
313.15 K | 848.1 ± 0.2 | 852.2 ± 0.3 | 856.2 ± 0.3 | 860 ± 0.3 | 863.7 ± 0.3 | 867.3 ± 0.3 | 870.7 ± 0.3 | 874 ± 0.3 | 877.2 ± 0.3 | 880.3 ± 0.3
323.15 K | 838.6 ± 0.2 | 843 ± 0.3 | 847.2 ± 0.3 | 851.3 ± 0.3 | 855.2 ± 0.3 | 858.9 ± 0.3 | 862.5 ± 0.3 | 866 ± 0.3 | 869.4 ± 0.3 | 872.6 ± 0.4
333.15 K | 828.8 ± 0.2 | 833.5 ± 0.3 | 838 ± 0.3 | 842.3 ± 0.3 | 846.4 ± 0.3 | 850.4 ± 0.3 | 854.2 ± 0.3 | 857.9 ± 0.3 | 861.4 ± 0.4 | 864.8 ± 0.4
343.15 K | 819.2 ± 0.2 | 824.1 ± 0.3 | 829 ± 0.3 | 833.5 ± 0.3 | 837.9 ± 0.3 | 842.1 ± 0.3 | 846 ± 0.3 | 849.9 ± 0.4 | 853.5 ± 0.4 | 857 ± 0.4
353.15 K | 809.4 ± 0.2 | 814.7 ± 0.3 | 819.9 ± 0.3 | 824.7 ± 0.3 | 829.3 ± 0.3 | 833.7 ± 0.3 | 837.9 ± 0.3 | 841.9 ± 0.4 | 845.7 ± 0.4 | 849.4 ± 0.4

From the NIST ThermoML archive (doi:10.1016/j.fluid.2005.05.023)
